Results: US20190031618A1, “BENZIMIDAZOLE DERIVATIVES USEFUL AS CB-1 INVERSE AGONISTS” (Janssen Pharmaceutica NV, priority 2015, published 2019)

Tests used:
[1] = target: Human CB2R (Cannabinoid receptor 2) (Homo sapiens, UniProt P34972); assay: CB-2 in vitro cAMP (HTRF) assay; assay type: cell-based; settings: HEK cells, cAMP HTRF, 250 nM forskolin; mean where tested more than once; read-out: CB2 HEK_cAMP EC50
From the text: (§1) CB1 and CB2 receptors are Gi-coupled GPCR. Activation of CB1 and CB2 receptors results in a decrease in cAMP production. An inverse agonist of the CB1 or CB2 receptor results in the opposite effect, an increase of cAMP production. The principle of this assay is based on HTRF® technology (Homogeneous Time-Resolved Fluorescence). The method is a competitive immunoassay between native cAMP produced by cells and the cAMP labeled with the fluorophore d2. The tracer binding is quantified by a Mab anti-cAMP labeled with Eu3+TBP-NHS Cryptate (supplied as part of the assay kit). The specific signal (i.e. energy transfer) is inversely proportional to the concentration of cAMP in the standard or sample.
Human CB1R (Cannabinoid receptor 1) was stably transfected in HEK-293 cells (DiscoveRx, cat: 93-0200C1). Human CB2R (Cannabinoid receptor 2) was stably transfected in HEK-293 cells (DiscoveRx, cat: 93-0201C1). Cell cultures were maintained in media: DMEM (Invitrogen Cat#12430-054) supplemented with 10% HI FBS (Invitrogen Cat#16140-071), 1% L-glutamine (Invitrogen Cat#25030-081), 0.2 mg/ml Hygromycin B (Invitrogen Cat#10687-010), 600 μg/mL G418 (Invitrogen Cat#10131-035), and 1× Penn/Strep (Invitrogen 15140-122). After cell expansion, aliquots were cryo-stored in media containing 5% DMSO (Pierce Cat#20684).
(§2) One day prior to experiments media was warmed to 37° C. and the cryo-stored cells were thawed in a 37° C. water bath. The cells were then added to media (10× volume) and the mixture was centrifuged at 1000 RPM for 5 min. The supernate was removed and the cells were re-suspended in media. A sample of the cell suspension was evaluated on a Cedex XS automated cell counter (Innovatis Systems) to determine viable cells/ml. Additional media was added to the cells to achieve a final cell density of 4E5 cells/mL. The cells were then plated into 384 well PDL white solid bottom plates (Greiner, Cat#781945) at 20 μL per well using a Multidrop (Thermo Scientific). Cells were removed from Row P (location of cAMP standards). Two columns of cells were plated into a clear bottom 384 well PDL coated plate (Greiner, Cat#781944) to view confluence the day of the assay. The cell plates were lidded and stored for 15 minutes in a hood, then transferred to an incubator (37° C., 5% CO2, 95% humidity) overnight.
DMSO was added to all wells of 384 well V bottom polystyrene plate (Greiner, Cat#781280) except to columns 1 and 13, rows O and P and wells M13-M23 and N13-N23. Test compounds (60 μL, 10 mM) were added to Column 1 and 13 (A1 through N1 and A13 through L13). Test compounds were serially diluted 1/3 by transferring and mixing 20 μl sample with 40 μL DMSO.
DMSO (40 μL) was added to wells of 384 well V bottom polystyrene plate: O2 through O11, M14 through M23, N14 through N23, and O14 through O23. AM630 (also known as [6-iodo-2-methyl-1-[2-(4-morpholinyl)ethyl]-1H-indol-3-yl](4-methoxyphenyl)-methanone, Cayman Chemical, Cat#10006974) (60 μL, 10 mM) was added to O1; and 1-(2,4-dichlorophenyl)-7-[(4-fluorophenyl)methylene]-4,5,6,7-tetrahydro-N-1-piperidinyl-1H-benzimidazole-3-carboxamide (60 μL, 10 mM) was added to N13. The control was serially diluted 1/3 by transferring and mixing 20 μl sample with 40 μL DMSO. This process resulted 11 doses per control, 10 mM to […].
Cells plated the day prior to the assay in clear bottom plates were viewed on an inverse microscope to ensure confluency in the range of 60-75%. […]

[2] = target: Human CB1R (Cannabinoid receptor 1) (Homo sapiens, UniProt P21554); assay: CB-1 in vitro cAMP (HTRF) assay; assay type: cell-based; settings: HEK cells, cAMP HTRF, 250 nM forskolin; mean where tested more than once; read-out: CB1 HEK_cAMP EC50
From the text: as §1
Human CB1R (Cannabinoid receptor 1) was stably transfected in HEK-293 cells (DiscoveRx, cat: 93-0200C1). Human CB2R (Cannabinoid receptor 2) was stably transfected in HEK-293 cells (DiscoveRx, cat: 93-0201C1).
as §2, with “The cells were then plated into 384 well PDL white solid bottom plates (Greiner, Cat#781945) at 20 μL per well using a Multidrop (Thermo Scientific).” left out, “Two columns of cells were plated into a clear bottom 384 well PDL coated plate (Greiner, Cat#781944) to view confluence the day of the assay.” left out
Test compounds (60 μL, 10 mM) were added to Column 1 and 13 (A1 through N1 and A13 through L13). Test compounds were serially diluted 1/3 by transferring and mixing 20 μl sample with 40 μL DMSO.
DMSO (40 μL) was added to wells of 384 well V bottom polystyrene plate: O2 through O11, M14 through M23, N14 through N23, and O14 through O23. […] The control was serially diluted 1/3 by transferring and mixing 20 μl sample with 40 μL DMSO. This process resulted 11 doses per control, 10 mM to 0.5 μM.
Cells plated the day prior to the assay in clear bottom plates were viewed on an inverse microscope to ensure confluency in the range of 60-75%.
A FLEXDROP (Perkin Elmer) was cleaned with ethanol then water, and primed with Buffer 2. A 384 well V bottom polypropylene plate containing d2 labelled cAMP and a second 384 well V bottom polypropylene plate containing anti-cAMP was prepared (50 μl per well). Media as “dumped” from the cell plate and 30 μL Buffer 1 was added to each well using a Multidrop. The content of the cell plate was again “dumped” and 10 μL Buffer 2 was added to each well using a Flexdrop. […] The cell plate was mixed (Speed 6, Lab-Line Instruments Titer Plate Shaker) and centrifuged (1000 RPMs, 1 min). […] The cell plate was again mixed (speed 6) and centrifuged (1000 RPMs, 1 min). The cell plate was incubated for 30 minutes at room temperature (˜27° C.). The contents of row P were removed and the cAMP standard dilutions were added in duplicate to Row P (P1-12 and P13-24). After incubation, 6 μL d2 labelled cAMP and 6 μL of Anti-cAMP were added to all wells of the cell plate using a BioMek FX (Beckman Coulter). The cell plate was again mixed (speed 6) and centrifuged (1000 RPMs, 1 min) and was incubated for 60 minutes in the dark at room Temp (˜27° C.).
After this final incubation, the cell plate was read in HTRF mode (fluorescence at 665 nm and 620 nm) on an Envision plate Reader (Perkin Elmer). The Envision reader outputs a ratio of channel 1/channel 2 fluorescence×10,000 (Normalized signal (NS)). Amount of cAMP in nM was calculated for each well (based on NS) from a cAMP standard curve located on each plate (at P1-12 and P13-24). EC50 values were determined from a 4-point fit (Hill equation) of a single 11-point compound dosing. Hill slope was fixed at 1.0.

Chain of Human CB1R (Cannabinoid receptor 1) (P21554 whole entry): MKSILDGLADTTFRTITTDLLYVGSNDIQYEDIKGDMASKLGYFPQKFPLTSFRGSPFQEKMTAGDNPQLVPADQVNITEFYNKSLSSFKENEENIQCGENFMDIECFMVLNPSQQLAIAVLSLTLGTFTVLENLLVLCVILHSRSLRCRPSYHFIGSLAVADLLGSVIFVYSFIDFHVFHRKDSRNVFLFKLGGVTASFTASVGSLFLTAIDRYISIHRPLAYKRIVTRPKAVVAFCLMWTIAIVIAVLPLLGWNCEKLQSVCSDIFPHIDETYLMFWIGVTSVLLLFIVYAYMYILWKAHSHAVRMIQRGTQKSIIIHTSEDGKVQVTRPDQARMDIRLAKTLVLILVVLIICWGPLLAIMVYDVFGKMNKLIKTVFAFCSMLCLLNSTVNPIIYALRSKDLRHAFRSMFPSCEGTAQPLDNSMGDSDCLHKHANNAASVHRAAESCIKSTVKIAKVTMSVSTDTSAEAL
Chain of Human CB2R (Cannabinoid receptor 2) (P34972 whole entry): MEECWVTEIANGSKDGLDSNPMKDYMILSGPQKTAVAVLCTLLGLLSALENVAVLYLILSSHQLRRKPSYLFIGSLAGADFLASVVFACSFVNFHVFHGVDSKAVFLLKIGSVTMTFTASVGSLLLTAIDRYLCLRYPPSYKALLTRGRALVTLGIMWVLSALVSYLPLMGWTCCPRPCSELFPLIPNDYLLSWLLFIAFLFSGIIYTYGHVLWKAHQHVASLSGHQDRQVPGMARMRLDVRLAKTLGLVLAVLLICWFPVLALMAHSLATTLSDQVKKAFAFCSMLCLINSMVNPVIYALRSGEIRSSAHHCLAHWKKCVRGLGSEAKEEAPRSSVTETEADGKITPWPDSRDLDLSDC

Row | EC50 [1] [nM] | EC50 [2] [nM] | SMILES
1 | 12100 | 113 | O=C(O)c1cccc(S(=O)(=O)N[C@H]2CC[C@@H](n3c(C4CC4)nc4ccc(C(c5ccc(Cl)cc5)c5ccc(Cl)cc5)cc43)CC2)c1 [Example 43]
2 | 4960 | 11 | O=S(=O)(c1cc(Cl)c(O)c(Cl)c1)N1CCC(n2c(C3CC3)nc3ccc(C(c4ccc(Cl)cc4)c4ccc(Cl)cc4)cc32)CC1 [Example 222]
3 | 5730 | 36.7 | O=C(NCCO)c1cccc(S(=O)(=O)N2CCC(n3c(C4CC4)nc4ccc(C(c5ccc(Cl)cc5)c5ccc(Cl)cc5)cc43)CC2)c1 [Example 205]
4 | > 10000 | 33.7 | COc1cccc(Cn2c(C3CC3)nc3ccc(C(c4ccc(Cl)cc4)c4ccc(Cl)cc4)cc32)c1 [Example 146]
5 | > 10000 | 4840 | O=S(=O)(N1CCC(n2c(-c3ccc(Cl)cc3)nc3ccc(C(c4ccc(Cl)cc4)c4nccs4)cc32)CC1)C(F)(F)F (stereo not shown) [Example 394]
6 | > 10000 | 17.1 | Oc1cccc(-n2c(C3CC3)nc3ccc(C(c4ccc(Cl)cc4)c4ccc(Cl)cc4)cc32)c1 [Example 180]
7 | 1880 | 182 | O=C(O)c1cccc(OCCn2c(C3CC3)nc3ccc(C(c4ccc(Cl)cc4)c4ccc(Cl)cc4)cc32)c1 [Example 23]
8 | > 10000 | 4240 | O=C(O)CS(=O)(=O)N1CCC(n2c(C3CC3)nc3ccc(C(c4ccc(Cl)cc4)c4ccc(Cl)cc4)cc32)CC1 [Example 248]
9 | > 10000 | 6 | NC(=O)c1ccc(S(=O)(=O)N2CCC(n3c(C4CC4)nc4ccc(C(c5ccc(Cl)cc5)c5ccc(Cl)cc5)cc43)CC2)o1 [Example 224]
10 | > 10000 | 31.2 | O=S(=O)(N1CCC(n2c(C3CC3)nc3c(O)cc(C(c4ccc(Cl)cc4)c4ccc(Cl)cc4)cc32)CC1)C(F)(F)F [Example 202]
11 | > 10000 | 5050 | COc1cc(S(=O)(=O)N2CCC(n3c(C4CC4)nc4ccc(C(CO)(c5ccc(Cl)cc5)c5ccc(Cl)cc5)cc43)CC2)ccc1C(N)=O [Example 192]

Continued, compound first:

Row | SMILES | EC50 [1] [nM] | EC50 [2] [nM]
12 | CCOC(=O)N1CCC(n2c(C3CCOCC3)nc3ccc(C(c4ccc(Cl)cc4)c4nccs4)cc32)CC1 (stereo not shown) [Example 412] | > 10000 | 623
13 | NC(=O)c1ccc(CN2CCC(n3c(C4CC4)nc4ccc(C(c5ccc(Cl)cc5)c5ccc(Cl)cc5)cc43)CC2)s1 [Example 126] | 7800 | 4.2
14 | CC(Cc1ccc(Cl)cc1)n1c(C(F)F)nc2ccc(C(c3ccc(Cl)cc3)c3nccs3)cc21 (stereo not shown) [Example 329] | > 10000 | 379
15 | Clc1ccc(C(c2ccc3nc(-c4ccco4)n(-c4cccc(Cl)c4)c3c2)c2nccs2)cc1 (stereo not shown) [Example 377] | > 10000 | > 10000
16 | Clc1ccc(C(c2ccc3nc(C4CC4)n(C4CCc5ccccc5C4)c3c2)c2nccs2)cc1 (stereo not shown) [Example 342] | > 10000 | 184
17 | CCOC(=O)COc1ccc(Cn2c(C3CC3)nc3ccc(C(c4ccc(Cl)cc4)c4ccc(Cl)cc4)cc32)cc1 [Example 175] | 4750 | 5420
18 | O=S(=O)(N1CCC(n2c(-c3ccncc3)nc3ccc(C(c4ccc(Cl)cc4)c4nccs4)cc32)CC1)C(F)(F)F (stereo not shown) [Example 390] | > 10000 | 242
19 | O=C(O)c1cccc(CN2CCC(n3c(C4CC4)nc4ccc(C(c5ccc(Cl)cc5)c5ccc(Cl)cc5)cc43)CC2)c1F [Example 85] | 8100 | 17.4
20 | Cc1ccc(C(c2ccc(C)cc2)c2ccc3nc(C4CC4)n(C4CCN(Cc5cccc(C(=O)O)c5)CC4)c3c2)cc1 [Example 96] | 7920 | 27.3
21 | Cc1nc2ccc(C(c3ccc(Cl)cc3)c3nccs3)cc2n1CCc1cccc(Cl)c1 (stereo not shown) [Example 437] | > 10000 | 192
22 | O=S(=O)(N1CCC(Cn2c(C3CC3)nc3ccc(C(c4ccc(Cl)cc4)c4nccs4)cc32)CC1)C(F)(F)F (stereo not shown) [Example 324] | 3880 | 10.2
23 | CCc1nc2ccc(C(c3ccc(Cl)cc3)c3ccc(Cl)cc3)cc2n1CCc1ccc(C(F)(F)F)cc1 [Example 314] | 2790 | 20.1
